According to US20240393340A1, “PROGNOSIS AND PREDICTIVE BIOMARKERS AND BIOLOGICAL APPLICATIONS THEREOF” (INSTITUT GUSTAVE ROUSSY, priority 2013, published 2024):

Assays:
Assay type in all cases: cell-based
A375 = test: Short-term growth-inhibition assay, PLX-4720 (Example 1); conditions: Homo sapiens, A-375; A375 cell line; read-out: half-maximum inhibitory concentration (IC50)
Method: (§1) FIGS. 1A-1B: Short-term growth-inhibition assay of a panel of melanoma cell lines including BRAF (V600E) cell lines and an NRAS (Q61R) mutated cell line. FIG. 1A. Cells were treated with increasing concentrations of N-[3-[(5-Chloro-1H-pyrrolo[2,3-b]pyridin-3-yl)carbonyl]-2,4-difluorophenyl]-1-propanesulfonamide (PLX-4720) for 72 h and cell viability was determined using CellTiter-Blue by measuring the absorbance at 540 nm in a microplate reader. Error bars show data +standard error. Means were derived from four replicates (n=4). FIG. 1B. Long-term colony formation assay of the indicated cells. Cells were grown in the absence or presence of PLX-4720 at the indicated concentrations for 15-20 days. For each cell line, all dishes were fixed at the same time, stained and photographed.
(§2) Cell proliferation was measured using a WST-1 reagent (Roche Applied Science, IN, USA). Melanoma cells were plated with 5000 cells per well in 96-well tissue culture plates. After 24 hours, the cells were treated with drugs or DMSO at the indicated concentrations, in triplicates. WST-1 reagent was added to the wells and incubated at 37° C. for 2 hours before and after the treatment period of 48 hours. The plates were then read at 450 nm on a Wallac Victor^3 1420 Multilabel Counter (Perkin Elmer, ON, Canada). Absorbance readings are expressed in terms of cell proliferation as percent of the control cells growth within the 48 hours of treatment.
(§3) The inventors quantified the effect of exposing these cell lines to PLX-4720 on the half-maximum inhibitory concentration (IC50) (Table 1).

Mel10 = test: as above; conditions: Mel10 cell line; read-out: half-maximum inhibitory concentration (IC50)
Method: as §1, §2, §3

Mel888 = test: as above; conditions: Mel888 cell line; read-out: half-maximum inhibitory concentration (IC50)
Method: as §1, §2, §3

SK-Mel28 = test: as above; conditions: Homo sapiens, SK-MEL-28; SK-Mel28 cell line; read-out: half-maximum inhibitory concentration (IC50)
Method: as §1, §2, §3

SK-Mel5 = test: as above; conditions: Homo sapiens, SK-MEL-5; SK-Mel5 cell line; read-out: half-maximum inhibitory concentration (IC50)
Method: as §1, §2, §3

ERK phosphorylation = test: Western blot analysis of total and phosphorylated proteins; conditions: all tested cell lines

IC50 (A375): 400 nM
IC50 (SK-Mel28): 400 nM
IC50 (SK-Mel5): 1500 nM
SMILES: CCCS(=O)(=O)Nc1ccc(F)c(C(=O)c2c[nH]c3ncc(Cl)cc23)c1F [PLX-4720, N-[3-[(5-Chloro-1H-pyrrolo[2,3-b]pyridin-3-yl)carbonyl]-2,4-difluorophenyl]-1-propanesulfonamide]
IC50 (Mel10): > 10000 nM
IC50 (Mel888): 100 nM
ERK phosphorylation downstream of BRAF (ERK phosphorylation): inhibited ERK phosphorylation
